Reference: patent US10155755B2, “Quinuclidine derivative” (LTT BIO-PHARMA CO., LTD., priority 2015, dated 2018)

What follows are compounds tested against T1, human M3 receptor (Homo sapiens, UniProt P20309) (assay: Human M3 receptor antagonist activity, [3H]NMS receptor binding). Conditions: not given.
T1 construct: expressed in transfected cells; host or cells: CHO cells (membrane preparation)
T1 sequence (P20309 whole entry): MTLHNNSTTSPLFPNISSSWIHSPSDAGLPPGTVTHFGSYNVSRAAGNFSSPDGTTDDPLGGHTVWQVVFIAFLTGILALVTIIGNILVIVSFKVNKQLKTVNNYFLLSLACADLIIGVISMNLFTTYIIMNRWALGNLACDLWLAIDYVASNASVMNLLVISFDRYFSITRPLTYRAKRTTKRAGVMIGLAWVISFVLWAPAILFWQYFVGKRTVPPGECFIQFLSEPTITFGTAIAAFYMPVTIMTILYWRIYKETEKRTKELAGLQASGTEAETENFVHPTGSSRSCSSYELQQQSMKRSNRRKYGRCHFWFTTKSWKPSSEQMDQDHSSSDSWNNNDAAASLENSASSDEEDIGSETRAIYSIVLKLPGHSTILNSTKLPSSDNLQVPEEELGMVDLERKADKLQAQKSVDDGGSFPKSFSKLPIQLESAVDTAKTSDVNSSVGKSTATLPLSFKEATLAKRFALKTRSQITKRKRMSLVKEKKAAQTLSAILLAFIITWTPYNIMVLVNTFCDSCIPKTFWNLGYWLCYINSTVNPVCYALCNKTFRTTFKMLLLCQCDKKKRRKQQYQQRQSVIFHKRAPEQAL
Method: Measurement of the receptor binding ability was performed by using a transgenic human M3 receptor expression CHO cell membrane, 1-[N-methyl-^3H] scopolamine methyl bromide ([^3H]NMS, specific activity of 82 Cimmol). Protein concentration of the cell membrane was 2 μg per well, concentration of the [^3H]NMS was 1.0 nM.
Range of the antagonist concentration (10^−4 to 10^−11 M) was tested by creating a comparison curve. Unspecific binding was measured in the presence of 1 μM of atropine.
The reagent was adjusted to a total volume of 100 μL with a binding buffer (phosphate buffer/saline). The mixture was incubated at room temperature for 2 hours so as to reach equilibrium, and then the resultant mixture was transplanted to a GF/C filter plate that had been pretreated with a washing buffer containing 0.05% polyethyleneimine for 1 hour.
The bound [^3H]NMS and the free[^3H]NMS were separated by rapid vacuum filtration, and washed three times with a rinse buffer (50 mM of Tris, 100 mM of saline, and pH of 7.4). The obtained filter was dried, and then onto the dried filter, a solid scintillator, MeltiLex A (manufactured by PerkinElmer, Inc.) was fused, and the measurement and quantification were performed by using a β-counter (MicroBeta microplate scintillation counter (Trilux)).
The Ki value was calculated by the following equation.
With `O=C(OC1C[N+]2(CCCOc3ccc(I)cc3)CCC1CC2)C(O)(c1ccccc1)c1ccccc1` (centres unmarked) [Compound 1-32] the Ki was 0.22 nM. Work on `O=C(OC1C[N+]2(CCCOc3ccc(OC(F)(F)F)cc3)CCC1CC2)C(O)(c1ccccc1)c1ccccc1` (centres unmarked) [Compound 1-36] yielded a Ki of 0.39 nM. `COc1ccc(OCCC[N+]23CCC(CC2)C(OC(=O)C(O)(c2ccccc2)c2ccccc2)C3)cc1` (centres unmarked) [Compound 1-35] gave a Ki of 5.89 nM. `O=C(OC1C[N+]2(CCCOc3ccc(Cl)cc3)CCC1CC2)C(O)(c1ccccc1)c1ccccc1` (centres unmarked) [Compound 1-30] gave a Ki of 0.084 nM. For `O=C(OC1C[N+]2(CCOc3ccccc3F)CCC1CC2)C(O)(c1ccccc1)c1ccccc1` (centres unmarked) [Compound 1-4], the Ki was 0.114 nM. In the case of `Cc1ccc(OCCC[N+]23CCC(CC2)C(OC(=O)C(O)(c2ccccc2)c2ccccc2)C3)cc1` (centres unmarked) [Compound 1-33], the Ki is reported as 0.058 nM. For `O=C(OC1C[N+]2(CCOc3ccccc3Cl)CCC1CC2)C(O)(c1ccccc1)c1ccccc1` (centres unmarked) [Compound 1-5], the Ki was 2.39 nM. With `O=C(OC1C[N+]2(CCOc3ccccc3Br)CCC1CC2)C(O)(c1ccccc1)c1ccccc1` (centres unmarked) [Compound 1-6] the Ki was 0.458 nM. In the case of `O=C(OC1C[N+]2(CCCOc3ccc(Br)cc3)CCC1CC2)C(O)(c1ccccc1)c1ccccc1` (centres unmarked) [Compound 1-31], the Ki is reported as 0.32 nM. For `O=C(OC1C[N+]2(CCCOc3ccc(F)cc3)CCC1CC2)C(O)(c1ccccc1)c1ccccc1` (centres unmarked) [Compound 1-29], the Ki was 0.19 nM. `O=C(OC1C[N+]2(CCOCc3ccccc3)CCC1CC2)C(O)(c1ccccc1)c1ccccc1` (centres unmarked) [Compound 1-41] gave a Ki of 0.12 nM. Compound `O=C(OC1C[N+]2(CCCOc3ccc(C(F)(F)F)cc3)CCC1CC2)C(O)(c1ccccc1)c1ccccc1` (centres unmarked) [Compound 1-34] has a Ki of 2.7 nM.

What follows are compounds tested on porcine pancreatic elastase-induced inflammation (assay: Effect on porcine pancreatic elastase-induced inflammation (total cells in BALF)). Conditions: single transairway dose 1 hour before porcine pancreatic elastase 100 μg/mouse; BALF 24 hours after elastase; ICR mice.
Format: in vivo
Method: To 4 to 6-week old ICR mice, a test compound was administered once through the transairway. Porcine pancreatic elastase at 100 μg/mouse was administered 1 hour after the administration of the test compound. Bronchoalveolar lavage fluid (BALF) was collected from the lungs 24 hours after the administration of porcine pancreatic elastase, and the total number of cells was measured.
In the case of `O=C(O[C@H]1C[N+]2(CCCc3ccccc3)CCC1CC2)C(O)(c1ccccc1)c1ccccc1` [Compound 1-18], the “total number of cells in BALF” value is reported as “reduced in a dose-dependent manner”. In the case of `O=C(O[C@H]1C[N+]2(CCCOc3ccccc3)CCC1CC2)C(O)(c1cccs1)c1cccs1` [aclidinium, reference compound], the “total number of cells in BALF” value is reported as “did not show any beneficial anti-inflammatory effects”. With `O=C(O[C@@H]1C[N+]2(CCCc3ccccc3)CCC1CC2)C(O)(c1ccccc1)c1ccccc1` [Compound 1-19] the “total number of cells in BALF” value was “reduced in a dose-dependent manner”. In the case of `O=C(OC1C[N+]2(CCCc3ccccc3)CCC1CC2)C(O)(c1ccccc1)c1ccccc1` (centres unmarked) [Compound 1-20], the “total number of cells in BALF” value is reported as “reduced in a dose-dependent manner”.

Each compound was assayed on methacholine-induced airway constriction (assay: Effect on methacholine-induced airway constriction (airway resistance)). Conditions: 47.9 μg/kg transairway, when exceeding 96 hours after the administration, ICR mice (FIG. 2).
Format: in vivo
Method: The increase of airway resistance by methacholine induction was measured. To 4 to 6-week old ICR mice, methacholine at 1 mg/mL was administered 5 times by spraying the methacholine for 20 seconds. After completion of the methacholine administration, the airway resistance was measured by a snap shot technique. All of the data were analyzed by using FlexiVent software.
The test compound at 47.9 μg/kg was administered to the mice through the transairway. The mice were exposed 5 times to nebulized methacholine 1 hour, 96 hours, and 120 hours after the administration, and the airway resistance at each time was measured.
For `O=C(O[C@H]1C[N+]2(CCCOc3ccccc3)CCC1CC2)C(O)(c1cccs1)c1cccs1` [aclidinium, reference compound], the “airway resistance after methacholine” value was “did not reduce the airway resistance”.
